Reference: ChEMBL document CHEMBL1130023, “Conformationally constrained [p-(omega-aminoalkyl)phenacetyl]-L-seryl-L-lysyl dipeptide amides as potent peptidomimetic inhibitors of Candida albicans and human myristoyl-CoA:protein N-myristoyl transferase” (J Med Chem, 1997)
Non-standard residues stand in square brackets, D forms with d. Residues, ends and D or L forms follow the SMILES beside them. *: point of attachment. Cha = N[C@@H](CC1CCCCC1)C(=O)O; Chg = N[C@H](C(=O)O)C1CCCCC1; NHPhenethyl = c1ccc(CCN*)cc1; 12Ado = NCCCCCCCCCCCC(=O)O; Aun = NCCCCCCCCCCC(=O)O; Ahp = NCCCCCCC(=O)O; βAla = NCCC(=O)O; Sar = CNCC(=O)O

How the values were obtained:
[1] = target: T1, Glycylpeptide N-tetradecanoyltransferase (Candida albicans (strain SC5314 / ATCC MYA-2876) (Yeast), UniProt P30418); assay: Inhibitory activity against N-myristoyltransferase (NMT) of candida albicans
T1 sequence (P30418 whole entry): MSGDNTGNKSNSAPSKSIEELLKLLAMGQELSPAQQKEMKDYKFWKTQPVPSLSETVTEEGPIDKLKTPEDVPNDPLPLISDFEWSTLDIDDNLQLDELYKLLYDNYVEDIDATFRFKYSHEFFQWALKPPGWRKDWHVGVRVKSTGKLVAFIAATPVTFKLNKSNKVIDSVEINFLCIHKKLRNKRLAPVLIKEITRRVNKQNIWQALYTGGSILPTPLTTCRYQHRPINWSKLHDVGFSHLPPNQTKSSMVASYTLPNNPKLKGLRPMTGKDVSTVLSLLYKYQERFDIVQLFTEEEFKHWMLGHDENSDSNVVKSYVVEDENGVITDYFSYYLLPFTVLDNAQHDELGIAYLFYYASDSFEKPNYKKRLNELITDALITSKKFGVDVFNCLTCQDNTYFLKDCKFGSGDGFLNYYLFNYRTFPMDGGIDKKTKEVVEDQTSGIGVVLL

[2] = Ratio of the IC50 against human NMT to the IC50 against Candida albicans NMT.
[3] = target: T2, Peptide N-myristoyltransferase (Homo sapiens, UniProt P30419+O60551); assay: Inhibition of human N-myristoyltransferase (NMT); format: protein assay
T2 sequence (P30419 whole entry): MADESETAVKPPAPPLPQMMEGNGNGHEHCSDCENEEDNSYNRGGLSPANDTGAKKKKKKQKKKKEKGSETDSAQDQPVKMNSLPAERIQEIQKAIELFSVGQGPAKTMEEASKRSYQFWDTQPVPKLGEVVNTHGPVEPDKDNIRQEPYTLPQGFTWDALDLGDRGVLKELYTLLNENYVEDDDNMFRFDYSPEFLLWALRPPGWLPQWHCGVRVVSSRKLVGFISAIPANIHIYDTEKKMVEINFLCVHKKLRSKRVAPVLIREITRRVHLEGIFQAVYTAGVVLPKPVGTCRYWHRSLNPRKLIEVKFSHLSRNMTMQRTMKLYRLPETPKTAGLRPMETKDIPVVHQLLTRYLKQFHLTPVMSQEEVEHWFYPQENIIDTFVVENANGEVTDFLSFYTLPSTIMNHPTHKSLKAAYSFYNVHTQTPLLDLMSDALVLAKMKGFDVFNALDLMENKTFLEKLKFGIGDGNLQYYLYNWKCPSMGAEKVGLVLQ
T2 sequence (O60551 whole entry): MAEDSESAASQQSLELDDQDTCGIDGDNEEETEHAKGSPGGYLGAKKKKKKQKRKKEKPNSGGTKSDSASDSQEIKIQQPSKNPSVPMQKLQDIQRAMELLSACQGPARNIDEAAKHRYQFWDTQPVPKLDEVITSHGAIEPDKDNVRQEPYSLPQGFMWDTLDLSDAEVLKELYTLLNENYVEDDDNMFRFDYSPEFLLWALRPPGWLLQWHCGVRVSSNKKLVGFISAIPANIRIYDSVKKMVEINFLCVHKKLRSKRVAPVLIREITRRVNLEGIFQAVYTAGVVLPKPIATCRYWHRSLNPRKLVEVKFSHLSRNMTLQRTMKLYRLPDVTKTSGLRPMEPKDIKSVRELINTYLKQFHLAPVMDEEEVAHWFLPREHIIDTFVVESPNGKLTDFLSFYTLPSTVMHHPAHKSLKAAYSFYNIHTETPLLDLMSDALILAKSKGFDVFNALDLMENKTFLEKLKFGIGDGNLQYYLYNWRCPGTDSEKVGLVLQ

[4] = target: Glycylpeptide N-tetradecanoyltransferase (Candida albicans) (UniProt P30418); assay: The binding affinity was evaluated towards N-myristoyltransferase (NMT) in the presence of the peptide substrate GNAASARR-NH2
[5] = target: T2, Peptide N-myristoyltransferase; assay: The binding affinity was evaluated against the acyl transferase's peptide, N-myristoyltransferase binding site; format: protein assay

Molecule	IC50 [1] [µM]	other results
CNCCCCCCCCCCC(=O)N[C@@H](CO)C(=O)N[C@@H](CCCCN)C(=O)N[C@@H](CC(C)C)C(=O)OC	0.35	–
CC(C)CCNC(=O)[C@@H](CCCCN)NC(=O)[C@@H](CO)NC(=O)CCCCCCCCCCN	365	–
COC(=O)[C@H](CC(C)C)NC(=O)[C@H](CCCCN)NC(=O)[C@H](CO)NC(=O)CCCCCCCCN	5.2	–
CC(C)[C@H](NC(=O)[C@H](CCCCN)NC(=O)[C@H](CO)NC(=O)CCCCCCCCCCN)C(N)=O (H-[Aun]SKV-NH2)	19	–
NCCCC[C@H](NC(=O)[C@H](CO)NC(=O)CCCCC#Cc1ccc(CN)cc1)C(=O)NCCC1CCCCC1	0.17	Ratio [2]: 4.5; IC50 [3]: 0.76 µM
CC(C)C[C@H](NC(=O)[C@H](CCCCN)NC(=O)[C@H](CO)NC(=O)CCCCCCCCCCN)C(N)=O (stereo in doubt; 3a)	1.2	–
CC(C)CCNC(=O)[C@H](CCCCN)NC(=O)[C@H](CO)NC(=O)CCCCCCCCCCN	0.78	Ratio [2]: 0.5
CC(C(=O)N[C@@H](CO)C(=O)N[C@@H](CCCCN)C(=O)NCCC1CCCCC1)c1ccc(CCCCCCN)cc1 (stereo not given in full)	0.043	Ratio [2]: 18; IC50 [3]: 0.79 µM
CC(C)(C)CCNC(=O)[C@H](CCCCN)NC(=O)[C@H](CO)NC(=O)CCCCCCCCCCN	1.2	–
NCCCCCCCCCCC(=O)N[C@@H](CO)C(=O)N[C@@H](CCCCN)C(=O)NCCCC1CCCCCCC1	0.3	Ratio [2]: 3.8; IC50 [3]: 1.14 µM
NCCCCCc1cccc(CC(=O)N[C@@H](CO)C(=O)N[C@@H](CCCCN)C(=O)NCCC2CCCCC2)c1	0.52	Ratio [2]: 3.5; IC50 [3]: 1.8 µM
NCCCCCCCCCCC(=O)N[C@@H](CO)C(=O)N[C@@H](CCCCN)C(=O)N[C@H](C(N)=O)C1CCCCC1 (H-[Aun]SK[Chg]-NH2)	0.76	–
NCCCCCCCCc1ccc(CC(=O)N[C@@H](CO)C(=O)N[C@@H](CCCCN)C(=O)NCCC2CCCCC2)cc1	0.75	Ratio [2]: 70; IC50 [3]: 53 µM
COC(=O)[C@H](CC(C)C)NC(=O)[C@H](CCCCN)NC(=O)[C@H](CO)NC(=O)CCCCCCCCCCCN (H-[12Ado]SKL-OMe)	0.27	–
CNCC(=O)N[C@@H](CC(C)C)C(=O)N[C@@H](Cc1ccc(O)cc1)C(=O)N(C)CC(=O)N[C@@H](CO)C(=O)N[C@@H](CCCCN)C(=O)N[C@@H](CC(C)C)C(=O)N[C@@H](CO)C(N)=O (H-[Sar]LY[Sar]SKLS-NH2)	80	–
NCCCCCCCCCCC(=O)N[C@@H](CO)C(=O)N[C@@H](CCCCN)C(=O)N[C@@H](CC1CCCCC1)C(N)=O (H-[Aun]SK[Cha]-NH2)	0.36	–
COC(=O)[C@H](CC(C)C)NC(=O)[C@H](CCCCN)NC(=O)[C@H](CO)NC(=O)CCCCCCCCCCN (H-[Aun]SKL-OMe)	0.6	–
NCCCCCCCCCCC(=O)N[C@@H](CO)C(=O)N[C@@H](CCCCN)C(=O)NCCCC1CCCCC1	1.3	–

Molecule	IC50 [1] [µM]	other results
NCCCCCCCCCCC(=O)N[C@@H](CO)C(=O)N[C@@H](CCCCN)C(=O)NCCc1ccccc1 (H-[Aun]-Ser-Lys-NHPhenethyl)	5	–
NCCCCCCc1ccc(CC(=O)N[C@@H](CO)C(=O)N[C@@H](CCCCN)C(=O)NCCC2CCCCC2)cc1	0.11	Ki [4]: 0.06 µM; Ratio [2]: 7.3; IC50 [3]: 0.8 µM
CC(C)C[C@H](NC(=O)[C@H](CCCCN)NC(=O)[C@H](CO)NC(=O)CCCCCCCCCCN)C(N)=O (stereo in doubt)	> 1000	–
CC(C)C[C@H](NC(=O)CCN)C(=O)N[C@@H](Cc1ccc(O)cc1)C(=O)N[C@@H](C)C(=O)N[C@@H](CO)C(=O)N[C@@H](CCCCN)C(=O)N[C@@H](CC(C)C)C(=O)N[C@@H](CO)C(N)=O (H-[βAla]LYASKLS-NH2)	110	–
COC(=O)[C@H](CC(C)C)NC(=O)[C@H](CCCCN)NC(=O)[C@H](CO)NC(=O)CCCCCCCCCCN(C)C	0.69	–
COC(=O)[C@H](CC(C)C)NC(=O)[C@H](CCCCN)NC(=O)[C@H](CO)NC(=O)CCCCCCN (H-[Ahp]SKL-OMe)	> 100	–
NCCCCCc1ccc(CC(=O)N[C@@H](CO)C(=O)N[C@@H](CCCCN)C(=O)NCCC2CCCCC2)cc1	0.19	Ratio [2]: 5.2; IC50 [3]: 0.99 µM
NCCCC[C@H](NC(=O)[C@H](CO)NC(=O)Cc1ccc(CCc2ccc(CN)cc2)cc1)C(=O)NCCC1CCCCC1	0.75	Ratio [2]: 83; IC50 [3]: 62 µM
CC[C@H](C)[C@H](NC(=O)[C@H](CCCCN)NC(=O)[C@H](CO)NC(=O)CCCCCCCCCCN)C(N)=O (H-[Aun]SKI-NH2)	3.9	–
NCCCCCCCCCCC(=O)N[C@@H](CO)C(=O)N[C@@H](CCCCN)C(=O)NCC(N)=O (H-[Aun]SKG-NH2)	16	–
CC(C)CNC(=O)[C@H](CCCCN)NC(=O)[C@H](CO)NC(=O)CCCCCCCCCCN	> 10	–
NCCCC[C@H](NC(=O)[C@H](CO)NC(=O)Cc1ccc(C#Cc2ccc(CN)cc2)cc1)C(=O)NCCC1CCCCC1	> 10	–
NCCCC[C@H](NC(=O)[C@H](CO)NC(=O)CCCCCCc1ccc(CN)cc1)C(=O)NCCC1CCCCC1	0.34	Ratio [2]: 4.4; IC50 [3]: 1.5 µM
NCCCCCCCCCCC(=O)N[C@@H](CO)C(=O)N[C@@H](CCCCN)C(=O)N[C@@H](Cc1ccccc1)C(N)=O (H-[Aun]SKF-NH2)	8.2	–
C[C@H](NC(=O)[C@H](CCCCN)NC(=O)[C@H](CO)NC(=O)CCCCCCCCCCN)C(N)=O (H-[Aun]SKA-NH2)	16	–
H-ALYASKLS-NH2	–	Ki app [5]: 15.3 µM
COC(=O)[C@H](CC(C)C)NC(=O)[C@H](CCCCN)NC(=O)[C@H](CO)NC(=O)CCCCCCCCCN	0.3	–
